For orientation: IC50 means the midpoint of a concentration-inhibition curve.

The target in this test is Acetylcholinesterase (Homo sapiens, UniProt P22303). As to the kind of experiment: Inhibition of AChE (unknown origin).
Acetylcholinesterase, sequence (P22303 whole entry): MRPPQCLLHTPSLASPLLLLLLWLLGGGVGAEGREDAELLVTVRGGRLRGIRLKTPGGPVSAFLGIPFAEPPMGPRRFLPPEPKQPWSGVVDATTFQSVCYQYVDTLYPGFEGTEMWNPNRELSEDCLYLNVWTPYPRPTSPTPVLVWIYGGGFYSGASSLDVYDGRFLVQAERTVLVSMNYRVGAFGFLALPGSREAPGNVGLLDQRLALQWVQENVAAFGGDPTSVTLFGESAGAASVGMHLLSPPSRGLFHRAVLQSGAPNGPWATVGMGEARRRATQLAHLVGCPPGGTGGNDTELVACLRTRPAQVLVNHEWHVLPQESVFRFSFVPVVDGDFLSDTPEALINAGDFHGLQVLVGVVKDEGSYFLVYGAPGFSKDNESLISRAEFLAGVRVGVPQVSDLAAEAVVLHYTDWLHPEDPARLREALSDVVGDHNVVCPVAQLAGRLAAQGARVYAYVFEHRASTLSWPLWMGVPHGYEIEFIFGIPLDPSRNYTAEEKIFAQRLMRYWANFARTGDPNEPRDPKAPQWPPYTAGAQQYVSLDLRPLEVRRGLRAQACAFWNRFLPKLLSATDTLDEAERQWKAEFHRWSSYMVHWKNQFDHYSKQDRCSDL
For the compound `CO[C@@H]1C=C[C@@]23c4cc5c(cc4CN(CCc4ccccc4)[C@@H]2C(=O)N(C)[C@H]3C1)OCO5`, the IC50 was > 200 µM.

`CN[C@H]1C[C@H](OC)C=C[C@@]12C(=O)N(CCC(C)C)Cc1cc3c(cc12)OCO3`: the IC50 was > 200 µM.

On to `COc1cc2c(cc1O)[C@@H]1[C@H](O)[C@@H](OC)C=C3CCN(C2)[C@H]31`, for which the IC50 was > 200 µM.

In the case of `CO[C@@H]1C=C[C@@]23c4cc5c(cc4C[N@@+]([O-])(CCc4ccccc4)[C@@H]2C(=O)N(C)[C@H]3C1)OCO5`, the IC50 is > 200 µM.

With `CO[C@@H]1C=C[C@@]2(CN(CCC(C)C)Cc3cc4c(cc32)OCO4)[C@@H](N(C)C=O)C1`, the IC50 was > 200 µM.

As to `CO[C@@H]1C=C[C@@]23c4cc5c(cc4C[N@@+]([O-])(CCc4ccc(O)cc4)[C@@H]2C(=O)N(C)[C@H]3C1)OCO5`, the IC50 is > 200 µM.

Regarding `CO[C@@H]1C=C[C@@]23c4cc5c(cc4CN(CCC(C)C)[C@@H]2C(=O)N(C)[C@H]3C1)OCO5`, the IC50 was > 200 µM.

Take `COc1ccc2c3c1O[C@H]1C[C@@H](O)CC[C@@]31CC[N@@+](C)([O-])C2`: the IC50 is > 200 µM.

Turning to `COc1cc2c(cc1O)[C@@H]1[C@H](O)[C@@H](OC)C=C3CC[N@@+]([O-])(C2)[C@H]31`, the IC50 was > 200 µM.

For `CO[C@@H]1C=C[C@@]23c4cc5c(cc4CN(CCc4ccc(O)cc4)[C@@H]2C(=O)N(C)[C@H]3C1)OCO5`, the IC50 was > 200 µM.

`COc1ccc2c3c1O[C@H]1C[C@H](O)CC[C@@]31CCN(C)C2` gave an IC50 of 57.9 µM.

For the compound `CO[C@@H]1C=C[C@@]23c4cc5c(cc4CN(CCC(C)C)[C@]2(C(C)=O)C(=O)N(C)[C@H]3C1)OCO5`, the IC50 is > 200 µM.

Take `CO[C@@H]1C=C[C@@]23c4cc5c(cc4C(=O)N(C)[C@@H]2C(=O)N(C)[C@H]3C1)OCO5`: the IC50 is > 200 µM.

For `CO[C@@H]1C=C[C@@]23c4cc5c(cc4C(=O)N(CCC(C)C)[C@@H]2CN(C)[C@@H]3C1)OCO5`, the IC50 is > 200 µM.

Regarding `COc1cc2c3c(c1)c1cc(=O)c(OC)cc-1cn3CC2`, half-maximal inhibition (IC50) required 35.6 µM.

Consider `CO[C@@H]1C=C[C@@]23c4cc5c(cc4C[N@@+]([O-])(CCO)[C@@H]2C(=O)N(C)[C@H]3C1)OCO5`, for which the IC50 was determined as 126 µM. Against the preceding compound, the IC50 is about 3.5-fold higher.

Consider `COc1cc2c(cc1OC)[C@@H]1[C@H](O)[C@@H](OC)C=C3CC[N@+]([O-])(C2)[C@H]31`, for which the half-inhibitory concentration (IC50) was > 200 µM.

As for `CO[C@@H]1C=C[C@@]23c4cc5c(cc4CN(C)[C@@H]2C(=O)N(C)[C@H]3C1)OCO5`, the concentration for half-maximal inhibition (IC50) is > 200 µM.

With `COc1ccc2c3c1O[C@H]1C[C@@H](O)C=C[C@@]31[C@H](O)C[N@@+](C)([O-])C2`, the IC50 is > 200 µM.

As to `CO[C@@H]1C=C[C@@]23c4cc5c(cc4C(=O)N(CCC(C)C)[C@@H]2C(=O)N(C)[C@H]3C1)OCO5`, the IC50 was > 200 µM.

With `COc1ccc2c3c1O[C@H]1C[C@@H](O)CC[C@@]31CCN(C)C2`, the IC50 is 20.1 µM.

For the compound `COc1cc2c(cc1OC)[C@@H]1[C@H](O)[C@@H](OC)C=C3CCN(C2)[C@H]31` [GALANTHINE], the IC50 turned out to be 6.1 µM.

With `O[C@H]1[C@H]2c3cc4c(cc3CN3CCC(=C[C@@H]1O)[C@H]23)OCO4` [LYCORINE], the IC50 was > 200 µM.

`COc1cc2c(cc1O)[C@@H]1[C@H](O)[C@@H](O)C=C3CCN(C2)[C@H]31` [PSEUDOLYCORINE] gave an IC50 of 188 µM.

(Values after ChEMBL document CHEMBL4130435, “Acetylcholinesterase Inhibitory Alkaloids from the Whole Plants of Zephyranthes carinata” (J Nat Prod, 2017).)
